From US9630947B2, “Therapeutic compounds and related methods of use” (OTSUKA PHARMACEUTICAL CO., LTD., priority 2009, dated 2017) come the findings set out here.

Bounds are passed on as bounds.

The experiment deals with T1, purified STEP46 enzyme (Homo sapiens, UniProt P54829).
T1 sequence (P54829 1-565): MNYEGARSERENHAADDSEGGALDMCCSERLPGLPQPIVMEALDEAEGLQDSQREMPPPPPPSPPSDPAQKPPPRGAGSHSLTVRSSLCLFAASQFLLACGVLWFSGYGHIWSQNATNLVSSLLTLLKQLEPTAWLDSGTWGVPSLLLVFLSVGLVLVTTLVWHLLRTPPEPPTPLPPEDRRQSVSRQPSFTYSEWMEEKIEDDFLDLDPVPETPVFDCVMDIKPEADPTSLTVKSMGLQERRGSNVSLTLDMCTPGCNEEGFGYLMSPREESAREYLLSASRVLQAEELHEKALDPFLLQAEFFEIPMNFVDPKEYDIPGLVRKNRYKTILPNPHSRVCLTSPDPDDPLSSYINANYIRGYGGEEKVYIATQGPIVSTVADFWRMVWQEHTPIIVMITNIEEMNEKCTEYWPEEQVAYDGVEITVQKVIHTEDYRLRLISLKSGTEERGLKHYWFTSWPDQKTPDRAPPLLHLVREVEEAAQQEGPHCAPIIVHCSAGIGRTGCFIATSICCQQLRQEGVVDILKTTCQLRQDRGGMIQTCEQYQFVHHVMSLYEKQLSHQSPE
Description: STEP46 biochemical assay (DiFMUP fluorescence phosphatase assay). The settings on record: DiFMUP 10 μM, read-out: STEP IC50. Here is the method: STEP46 Biochemical Assays
Serial dilutions of compounds were performed in 100% DMSO and 1 uL of compounds were dispensed into 384-well black polystyrene plates (Corning, NY). Compounds were incubated with 24 uL of buffer containing 50 mM Hepes, 1 mM DTT, 0.02% Brij35, 1 ng/well purified STEP46 enzyme for 30 min at room temperature. The reaction was initiated by addition of 25 uL of DiFMUP (6, 8-difluoro-4-methylumbelliferyl phosphate) (InVitrogen, CA) with a final concentration of 10 μM and incubated at 27° C. for 90 min. Final DMSO concentration is 2%. Plates were read with florescence intensity at excitation/emission of 360/460 nm using a PheraStar plate reader (BMG Labtech, NC).
Data were expressed as percentage (%) inhibition of enzyme activity. 0% inhibition is defined as the RFUs (relative fluorescence units) in the absence of compounds and 100% inhibition is defined as RFUs in the absence of STEP46 enzyme. IC50 values of compounds with inhibitory activity against STEP46 were determined by GraphPad Prism (version 4.03) using four parameter logistic equation. Some compounds act as activators. For compounds showing STEP46 enzymatic activation, data are represented as percentage of inhibition but with negative values at three representative concentrations (25, 50 and 100 uM).
In the case of `CCOc1ccc2nc(-c3cccnc3)nc(Nc3nc(-c4ccccc4)cs3)c2c1` [Compound 473], the IC50 was in the range of 1000 to 10000 nM.

With `COc1ccc2nc(-c3cccnc3)nc(Nc3ccc4scnc4c3)c2c1` [Compound 320], the IC50 is 1000 to 10000 nM.

Consider `FC(F)Oc1cc(Cl)cc(Nc2nc(-c3ccnnc3)nc3ccccc23)c1` [Compound 1212], for which the IC50 lay within 1000 to 10000 nM.

Turning to `N#Cc1ccccc1-c1ccc2nc(-c3cccnc3)nc(Nc3ccc(F)c(Cl)c3)c2c1` [Compound 639], the concentration for half-maximal inhibition (IC50) was under 1000 nM.

As to `Fc1ccccc1-c1ccc2c(NCc3ccccn3)nc(-c3cccnc3)nc2c1` [Compound 1425], the IC50 fell in the range of 1000 to 10000 nM.

With `CNc1nc(-c2cccnc2)nc2c(C)c(-c3ccccc3F)ccc12` [Compound 1446], the half-maximal inhibitory concentration (IC50) was in the range of 1000 to 10000 nM.

`Fc1ccc(F)c(-c2ccc3c(Nc4ccc(F)c(Cl)c4)nc(-c4cccnc4)nc3c2)c1` [Compound 676]: the IC50 is under 1000 nM.

As to `COc1cc(-c2ccc3nc(-c4cccnc4)nc(Nc4ccc(F)c(Cl)c4)c3c2)cc(C(F)(F)F)c1` [Compound 664], the IC50 lay in the range of 1000 to 10000 nM.

On to `Fc1ccc(-c2ccc3c(Nc4ccc(F)c(Cl)c4)nc(-c4cccnc4)nc3c2)cc1` [Compound 689], for which the IC50 was under 1000 nM.

On to `CNc1nc(-c2cccnc2)nc2cc(-c3ccc(Cl)cc3)ccc12` [Compound 1354], for which the IC50 is 1000 to 10000 nM.

As to `Cc1cc(Cl)cc2c(Nc3ccc(F)c(Cl)c3)nc(-c3cnccn3)nc12` [Compound 1225], the 50% inhibitory concentration (IC50) was in the range of 1000 to 10000 nM.

In the case of `COc1ccc2nc(-c3cccnc3)nc(Nc3nc(-c4ccccc4Br)cs3)c2c1` [Compound 451], the IC50 is under 1000 nM.

On to `CN(C)c1nc(-c2cccnc2)nc2ccc(-c3ccccc3Cl)cc12` [Compound 1332], for which the IC50 lay within 1000 to 10000 nM.

With `Nc1nc(-c2cccnc2)nc2ccc(-c3ccccc3Cl)cc12` [Compound 1328], the IC50 was over 10000 nM.

As for `COc1ccc2nc(-c3cccnc3)nc(Nc3ccc4c(C)cc(=O)oc4c3)c2c1` [Compound 316], the IC50 is under 1000 nM.

As to `NC(=O)c1ccccc1Nc1nc(-c2cccnc2)nc2cc(-c3cc(F)ccc3F)ccc12` [Compound 706], the IC50 is under 1000 nM.

For the compound `COc1ccc2nc(-c3cccnc3)nc(Nc3ccccc3C(=O)NC(C)c3ccc(C(F)(F)F)cc3)c2c1` (centres unmarked) [Compound 889], the IC50 was in the range of 1000 to 10000 nM.

Consider `COc1ccc2nc(-c3cccnc3)nc(Nc3ccccc3C(=O)NCCC(F)(F)F)c2c1` [Compound 899], for which the IC50 lay in the range of 1000 to 10000 nM.

With `COc1cc(OC)cc(-c2ccc3nc(-c4cccnc4)nc(Nc4ccc(F)c(Cl)c4)c3c2)c1` [Compound 642], the IC50 is under 1000 nM.

As to `COc1ccc2nc(-c3cccnc3)nc(Nc3nc4ccccc4n3C)c2c1` [Compound 407], the IC50 lay within 1000 to 10000 nM.

Consider `Cc1cccc2c(Nc3cccc(OC(F)F)c3)nc(-c3ccnnc3)nc12` [Compound 1168], for which the half-maximal inhibitory concentration (IC50) lay within 1000 to 10000 nM.

For the compound `CNc1nc(-c2cccnc2)nc2cc(-c3ccc(C#N)cc3)c(C)cc12` [Compound 1410], the IC50 lay within 1000 to 10000 nM.

Regarding `COc1ccc2nc(-c3cccnc3)nc(Oc3ccc(Cl)c(Cl)c3)c2c1` [Compound 344], the IC50 lay within 1000 to 10000 nM.

As to `CNc1nc(-c2cccnc2)nc2ccc(-c3ccc(F)cc3F)cc12` [Compound 1611], the IC50 fell in the range of 1000 to 10000 nM.

Take `CNc1nc(-c2cccnc2)nc2ccc(-c3cc(OC)ccc3F)cc12` [Compound 1400]: the IC50 was in the range of 1000 to 10000 nM.

Turning to `COc1ccc2nc(-c3cccnc3)nc(Nc3nc(-c4cccc(Br)c4)cs3)c2c1` [Compound 447], the half-inhibitory concentration (IC50) lay within 1000 to 10000 nM.

In the case of `NC(=O)c1ccccc1Nc1nc(-c2cccnc2)nc2cc(-c3ccc(F)c(F)c3)ccc12` [Compound 703], the IC50 was under 1000 nM.

On to `Fc1ccc(Nc2nc(-c3cccnc3)nc3cc(-c4cccnc4)ccc23)cc1Cl` [Compound 677], for which the IC50 was over 10000 nM.

For the compound `CNc1nc(-c2cccnc2)nc2c(C)c(-c3cc(F)ccc3F)ccc12` [Compound 1450], the IC50 lay within 1000 to 10000 nM.

In the case of `CNC(=O)c1sc(Nc2nc(-c3cccnc3)nc3ccc(OC)cc23)nc1-c1ccccc1` [Compound 1124, 2-(6-methoxy-2-(pyridin-3-yl)quinazolin-4-ylamino)-N-methyl-4-phenylthiazole-5-carboxamide], the IC50 was under 1000 nM.

For the compound `Fc1ccc(Nc2nc(-c3cccnc3)nc3ccc(-c4cccc(OC(F)(F)F)c4)cc23)cc1Cl` [Compound 658], the IC50 is 1000 to 10000 nM.

For `COc1ccc2nc(-c3cccnc3)nc(Nc3ccc4ccoc4c3)c2c1` [Compound 314], the IC50 was 1000 to 10000 nM.

For the compound `COc1ccc2nc(-c3cccnc3)nc(Nc3ccc4ccc(=O)oc4c3)c2c1` [Compound 330], the half-inhibitory concentration (IC50) was in the range of 1000 to 10000 nM.

Consider `CN(C)c1cccc(-c2ccc3c(Nc4ccc(F)c(Cl)c4)nc(-c4cccnc4)nc3c2)c1` [Compound 693], for which the IC50 was under 1000 nM.

Consider `Fc1ccc(Nc2nc(-c3cccnc3)nc3ccc(-c4cncnc4)cc23)cc1Cl` [Compound 652], for which the IC50 was under 1000 nM.

With `COc1ccc2nc(-c3cccnc3)nc(Nc3ccc4ncoc4c3)c2c1` [Compound 341], the concentration for half-maximal inhibition (IC50) is 1000 to 10000 nM.

Regarding `COc1ccc2nc(-c3cccnc3)nc(Oc3ccccc3)c2c1` [Compound 348], the IC50 was 1000 to 10000 nM.

Turning to `COc1ccc2nc(-c3cccnc3)nc(Nc3nc(-c4ccccc4Cl)cs3)c2c1` [Compound 431], the IC50 was under 1000 nM.

For `COc1ccc2nc(-c3cncnc3)nc(Nc3ccccc3C(N)=O)c2c1` [Compound 1172], the IC50 was in the range of 1000 to 10000 nM.

For `CNc1nc(-c2cccnc2)nc2ccc(-c3cccc(-c4ccccc4)c3)cc12` [Compound 1346], the IC50 lay in the range of 1000 to 10000 nM.

For `CCOC(=O)c1csc(Nc2nc(-c3cccnc3)nc3ccc(OC)cc23)n1` [Compound 474], the 50% inhibitory concentration (IC50) lay in the range of 1000 to 10000 nM.

As for `Fc1ccc(Nc2nc(-c3ccnnc3)nc3ccccc23)cc1Cl` [Compound 1216], the half-maximal inhibitory concentration (IC50) was under 1000 nM.

For the compound `Clc1cc(Cl)cc(Nc2nc(-c3ccnnc3)nc3ccccc23)c1` [Compound 1223], the 50% inhibitory concentration (IC50) is under 1000 nM.

`COc1ccc2nc(-c3cccnc3)nc(Nc3nc(-c4c(F)cccc4F)cs3)c2c1` [Compound 459]: the IC50 is under 1000 nM.

Take `COc1ccc2nc(-c3cccnc3)nc(Nc3nc(-c4cccc(C)c4)cs3)c2c1` [Compound 440]: the IC50 lay within 1000 to 10000 nM.

`COc1ccc2nc(-c3cccnc3)nc(Nc3nc(-c4ccc(Cl)cc4)cs3)c2c1` [Compound 400]: the IC50 fell in the range of 1000 to 10000 nM.

Consider `CN(C)c1nc(-c2cccnc2)nc2ccc(-c3ccccc3[N+](=O)[O-])cc12` [Compound 1334], for which the IC50 was over 10000 nM.

As for `COc1ccc2nc(-c3cccnc3)nc(Nc3nnc(-c4ccc(Br)cc4)s3)c2c1` [Compound 428], the half-maximal inhibitory concentration (IC50) lay in the range of 1000 to 10000 nM.

For the compound `CN(C)c1ccc(-c2ccc3c(Nc4ccc(F)c(Cl)c4)nc(-c4cccnc4)nc3c2)cc1` [Compound 694], the IC50 was under 1000 nM.

Consider `NC(=O)c1ccc(-c2ccc3nc(-c4cccnc4)nc(Nc4ccc(F)c(Cl)c4)c3c2)cc1` [Compound 656], for which the IC50 is under 1000 nM.

Regarding `Fc1cc(F)cc(-c2ccc3c(Nc4ccc(F)c(Cl)c4)nc(-c4cccnc4)nc3c2)c1` [Compound 675], the IC50 is under 1000 nM.

Regarding `CNc1nc(-c2cccnc2)nc2ccc(-c3cccc(F)c3F)c(C)c12` [Compound 1285], the IC50 is over 10000 nM.

For `COc1ccc2nc(-c3cccnc3)nc(Nc3ccc(F)cc3Cl)c2c1` [Compound 933], the IC50 is 1000 to 10000 nM.

Regarding `Cc1cc(Cl)cc2c(Nc3cccc(OC(F)F)c3)nc(-c3ccnnc3)nc12` [Compound 1165], the IC50 is under 1000 nM.

Regarding `CNc1nc(-c2cccnc2)nc2cc(-c3ccccc3OC)c(C)cc12` [Compound 1411], the half-inhibitory concentration (IC50) is over 10000 nM.

As to `CNc1nc(-c2cccnc2)nc2c(C)c(-c3cccc(F)c3F)ccc12` [Compound 1451], the IC50 is 1000 to 10000 nM.

Consider `COc1ccc2nc(-c3cccnc3)nc(Nc3ccccc3C(=O)NCc3cccs3)c2c1` [Compound 884], for which the half-maximal inhibitory concentration (IC50) is over 10000 nM.

As for `N#Cc1cccc(Nc2nc(-c3cccnc3)nc3cc(-c4ccc(F)cc4)ccc23)c1` [Compound 709], the IC50 was under 1000 nM.

For `COc1ccc2nc(-c3cccnc3)nc(Nc3cccc4c3OC(F)(F)O4)c2c1` [Compound 339], the IC50 lay within 1000 to 10000 nM.

In the case of `Cc1cccc2c(Nc3cccc(C#N)c3)nc(-c3cnccn3)nc12` [Compound 1181], the 50% inhibitory concentration (IC50) lay in the range of 1000 to 10000 nM.

On to `Fc1ccc(Nc2nc(-c3cccnc3)nc3cc(-c4cncnc4)ccc23)cc1Cl` [Compound 678], for which the IC50 was in the range of 1000 to 10000 nM.

Consider `CNc1nc(-c2ccnnc2)nc2ccc(-c3cccc(F)c3F)cc12` [Compound 1237], for which the IC50 lay within 1000 to 10000 nM.
